Experimental data published in patent US6906205B2, “Spiro and dispiro 1,2,4-trioxolane antimalarials” (Medicines for Malaria Venture MMV, priority 2002, dated 2005).
≈ marks a conversion by molar mass, not a printed value.

Legend:
[1] = tested on: P. falciparum K1 strain (Thailand resistant to chloroquine); test: semiautomated microdilution assay, [3H]-hypoxanthine incorporation, K1 strain; assay type: cell-based, Plasmodium falciparum; conditions: K1 strain, 72 h incubation; for IC50: Plasmodium falciparum, read-out: IC50 (ng/ml) K1
Description: (§1) Various OZ compounds were tested by the semiautomated microdilution assay against intraerythrocytic forms of Plasmodium falciparum derived from asynchronous stock cultures.
(§2) Fifty percent inhibitory concentration (IC50) were estimated by Logit regression analysis.

[2] = tested on: P. falciparum NF54 strain (sensitive to standard antimalarials); test: semiautomated microdilution assay, [3H]-hypoxanthine incorporation, NF54 strain; assay type: cell-based, Plasmodium falciparum; conditions: NF54 strain, 72 h incubation; for IC50: Plasmodium falciparum, read-out: IC50 (ng/ml) NF54
Description: as §1, §2

[3] = tested on: ANKA strain of P. berghei; test: single dose STI in vivo screen in infected mice; parameters: species or system Plasmodium berghei; conditions: for Activity (%) po / Survival (days) po: single 10 mg/kg po in 3% ethanol and 7% Tween 80; for Activity (%) sc / Survival (days) sc: single 10 mg/kg sc in 3% ethanol and 7% Tween 80
Procedure, shortened: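 Groups of 3-5 Moro SPF or NMRI mice infected with the ANKA strain of P. berghei received a single dose of trioxolane on day one post-infection. The compound was given in 3% ethanol and 7% Tween 80 or in SSV (0.5% w/v CMC, 0.5% v/v benzyl alcohol, 0.4% v/v Tween 80, 0.9% w/v sodium chloride in water). Antimalarial activity was scored as percent reduction in parasitemia on day three and as survival time versus untreated controls. Survival to day 30 counted as cure.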

[4] = percent reduction in parasitemia day 3 post-infection, mice

| SMILES | IC50 (ng/ml) K1 [1] | IC50 (ng/ml) NF54 [2] | Activity (%) po [3, 4] | Activity (%) sc [3, 4] | Survival (days) po ([3]; untreated control 5.6 ± 0.3) | Survival (days) sc ([3]; untreated control 5.6 ± 0.3) | IC50 [1] [ng/mL] | IC50 [2] [ng/mL] | Activity (%) SSVpo ([3]; percent reduction in parasitemia day 3 post-infection, single po dose in standard suspending vehicle (SSV), mice) [%] | Survival (days) SSVpo ([3]; single po dose in SSV, untreated control 5.6 ± 0.3) [days] |
| --- | --- | --- | --- | --- | --- | --- | --- | --- | --- | --- |
| c1ccc(C2(c3ccccc3)OOC3(O2)C2CC4CC(C2)CC3C4)cc1 (centres unmarked) [OZ42] | 2.3 ng/mL (≈ 6.6 nM) | 2.6 ng/mL (≈ 7.46 nM) | 68% | 92% | 6.0 days | 7.0 days | – | – | – | – |
| Fc1ccc(C2(c3ccc(F)cc3)OOC3(O2)C2CC4CC(C2)CC3C4)cc1 (centres unmarked) [OZ44] | 2.5 ng/mL (≈ 6.5 nM) | 2.3 ng/mL (≈ 5.98 nM) | 99.3% | 99.9% | 7.0 days | 8.3 days | – | – | – | – |
| Fc1c(F)c(F)c(C2(c3c(F)c(F)c(F)c(F)c3F)OOC3(O2)C2CC4CC(C2)CC3C4)c(F)c1F (centres unmarked) [OZ45] | 17 ng/mL (≈ 32.2 nM) | 27 ng/mL (≈ 51.1 nM) | 15% | 16% | 6.0 days | 5.0 days | – | – | – | – |
| Clc1ccc(C2CCC3(CC2)OOC2(O3)C3CC4CC(C3)CC2C4)cc1 (centres unmarked) [OZ47] | 7.5 ng/mL (≈ 20 nM) | 7.4 ng/mL (≈ 19.7 nM) | 99.98% | 99% | 12.7 days | 8.0 days | – | – | – | – |
| Cc1ccc(S(=O)(=O)N2CCC3(CC2)OOC2(O3)C3CC4CC(C3)CC2C4)cc1 (centres unmarked) [OZ51] | 2.5/2.5 ng/ml | 2.5/2.5 ng/ml | 89% | 100% | 7.0 days | 14 days | – | – | – | – |
| c1ccc(CC2(Cc3ccccc3)OOC3(O2)C2CC4CC(C2)CC3C4)cc1 (centres unmarked) [OZ52] | 3.1 ng/mL (≈ 8.23 nM) | 3.0 ng/mL (≈ 7.97 nM) | 88% | 99.7% | 6.7 days | 8.0 days | – | – | – | – |
| O=C(O)CON=C1CCC2(CC1)OOC1(O2)C2CC3CC(C2)CC1C3 (centres unmarked) [OZ54] | 32 ng/mL (≈ 91.1 nM) | 35 ng/mL (≈ 99.6 nM) | 85% | 97% | 7.0/NA/7.0 days | 7.0/NA/7.0 days | – | – | – | – |
| O=S(=O)(c1ccc(Cl)cc1)N1CCC2(CC1)OOC1(O2)C2CC3CC(C2)CC1C3 (centres unmarked) [OZ57] | 3.1 ng/mL (≈ 7.05 nM) | 2.8 ng/mL (≈ 6.36 nM) | 32% | 98.4% | 6.0 days | 7.7 days | – | – | – | – |
| O=C(O)CCC(=O)N1CCC2(CC1)OOC1(O2)C2CC3CC(C2)CC1C3 (centres unmarked) [OZ58] | 7.1 ng/mL (≈ 19.4 nM) | 7.2 ng/mL (≈ 19.7 nM) | 39% | 52% | 6.0 days | 6.3 days | – | – | – | – |
| COc1ccc(S(=O)(=O)N2CCC3(CC2)OOC2(O3)C3CC4CC(C3)CC2C4)cc1 (centres unmarked) [OZ59] | 1.4 ng/mL (≈ 3.21 nM) | 1.3 ng/mL (≈ 2.98 nM) | 51% | 99.95% | 6.0 days | 10.0 days | – | – | – | – |
| O=S(=O)(c1ccccc1)N1CCC2(CC1)OOC1(O2)C2CC3CC(C2)CC1C3 (centres unmarked) [OZ60] | 1.1 ng/mL (≈ 2.71 nM) | 1.2 ng/mL (≈ 2.96 nM) | 71% | 100% | 6.0 days | 10.3 days | – | – | – | – |
| CCOC(=O)CC1CCC2(CC1)OOC1(O2)C2CC3CC(C2)CC1C3 (centres unmarked) [OZ61] | – | – | 91% | 96% | 7.0 days | 7.3 days | 0.52 (≈ 1.48 nM) | 0.53 (≈ 1.51 nM) | – | – |
| c1ccc(C2CCC3(CC2)OOC2(CCC(c4ccccc4)CC2)O3)cc1 (centres unmarked) [OZ62] | 33 ng/mL (≈ 90.5 nM) | 28 ng/mL (≈ 76.8 nM) | 0/NA/0% | 0/NA/0% | 6.0 days | 5.0 days | – | – | – | – |
| N#CC1(c2ccccc2)CCC2(CC1)OOC1(O2)C2CC3CC(C2)CC1C3 (centres unmarked) [OZ63] | 1.6/1.6 ng/ml | 1.6/1.6 ng/ml | 99.62% | 99.91% | 7.3 days | 9.3 days | – | – | 65 | 6.0 |
| CC(C)(C)COC(=O)C1CCC2(CC1)OOC1(O2)C2CC3CC(C2)CC1C3 (centres unmarked) [OZ64] | 1.5 ng/mL (≈ 3.96 nM) | 1.3 ng/mL (≈ 3.43 nM) | 95% | 98% | 7.3 days | 8.0 days | – | – | – | – |
| O=S(=O)([O-])OC1CCC2(CC1)OOC1(O2)C2CC3CC(C2)CC1C3.[Na+] (centres unmarked) [OZ65] | 57 ng/mL | 65 ng/mL | 0% | 1% | 5.0/NA/5.0 days | 5.0/NA/5.0 days | – | – | – | – |
| Fc1ccc(C2(c3ccc(F)cc3)OOC3(CCC(c4ccccc4)CC3)O2)cc1 (centres unmarked) [OZ66] | 44 ng/mL (≈ 108 nM) | 36 ng/mL (≈ 88.1 nM) | 0/NA/0% | 0/NA/0% | 5.3 days | 5.7 days | – | – | – | – |
| CC(=O)OC1(c2ccc(F)cc2)CCC2(CC1)OOC1(O2)C2CC3CC(C2)CC1C3 (centres unmarked) [OZ69] | 1.6 ng/mL (≈ 3.84 nM) | 1.4 ng/mL (≈ 3.36 nM) | 56% | 40% | 6.3/NA/6.3 days | 6.3/NA/6.3 days | – | – | – | – |
| CCOC(=O)C1CCC2(CC1)OOC1(O2)C2CC3CC(C2)CC1C3 (centres unmarked) [OZ70] | – | – | 98% | 94% | 7.7/NA/7.7 days | 7.7/NA/7.7 days | 1.2 (≈ 3.57 nM) | 1.1 (≈ 3.27 nM) | – | – |
